Among the data in EP0015214B1, “Derivatives of substituted 2-benzoyl glycinanilides, their preparation and their use in anxiolytic medicaments” (PIERRE FABRE S.A., priority 1979, dated 1980) are ED50 and LD50 values, retold here.

Each structure is given as a SMILES string.

In data set [1] the test system is souris mâles de souche swiss. Kind of data set: Rotating rod test (Rota-Rod). Type of data set: in vivo. The note with it: Mus musculus, po, male Swiss mice, 10 per dose, effective if the mouse falls off the rod in less than two minutes, read-out: Rota-Rod v. o. DE50. From the text:
On réalise cet essai sur des souris mâles de souche swiss. On place la souris sur une tige de bois d'un diamètre de 3 crn, tournant à raison de cinq tours par minute. On choisit les souris qui peuvent rester sur la tige pendant au moins trois minutes au cours d'essais successifs et on les rassemble par groupe de dix pour l'essai de chaque dose.
Si la souris tombe de la tige en moins de deux minutes, on considère le composé essayé comme efficace.
Les résultats sont exprimés en DE50 selon: N. W. Dunham et T. S. Miva (J. Amer. Pharm. Asso., 1957, 46,208).

Data set [2] in a line: Oral toxicity, lethal dose 50 (Miller and Tainter method). The note with it: in vivo, lethal dose 50 calculated by the Miller and Tainter method, read-out: Toxicité v. o. DE50. The source says: Les composés les plus actifs de la présente invention ont été soumis à des contrôles de toxicité.
La dose létale 50 et les activités pharmacologiques sont rapportées dans le Tableau (I).
La dose létale a été recherchée par voie orale et calculée selon la méthode de Miller et Tainter (Proc. Soc. Exper. Biol. Med., 1944,57,261).

Data set [3] concerns souris mâles de souche swiss. The data set can be described thus: Pentetrazol antagonism (protection against tonic convulsions). Format: in vivo. The note with it: Mus musculus, po, 60 min before 125 mg/kg s.c. pentetrazol, male Swiss mice, observed for two hours, read-out: Pentétrazol v. o. DE50. As to the method:
Ce test est réalisé sur un groupe de dix souris mâles de souche Swiss. Dans un délai de quinze minutes après l'injection sous-cutanée de 125 mg/kg de pentétrazol, les souris ont des convulsions toniques dont l'issue est fatale. Pour l'essai, on administre par voie orale les composés soixante minutes avant l'injection de pentétrazol. Les animaux sont observes pendant deux heures après administration du pentétrazol.
Les résultats sont exprimés par la dose efficace DE50 selon Goodmann et Coll. (J. Pharmacol. 108, 1953).

Take `CN(C(=O)CNC1CCCCC1)c1ccc(Br)cc1C(=O)c1ccccc1` [Br]: the ED50 in data set [1] was 22 mg/kg. The LD50 in data set [2] is over 1000 mg/kg.
As for `CN(C(=O)CNC1CCCCC1)c1ccc(C(F)(F)F)cc1C(=O)c1ccccc1` [Exemple 12, N-méthyl N'-cyclohexyl (benzoyf-2' trifluorométhyl-4') glycylanilide], the ED50 in data set [1] amounted to 8 mg/kg; in data set [3], 1 mg/kg. In data set [2], the LD50 is over 1000 mg/kg.
On the same counts, the results for `CN(C(=O)CNC1CCCCC1)c1ccc(C#N)cc1C(=O)c1ccccc1` [Exemple 13, Chlorhydrate de N-méthyl N'-cyclohexyl (benzoyl-2' cyano-4') glycylanilide] are 7 mg/kg, 0.9 mg/kg and over 1000 mg/kg.
